The source of these data is patent US9943524B2, “Use of alkaloid in preparing pharmaceutical compositions for preventing or treating pulmonary fibrosis” (China Pharmaceutical University, priority 2014, dated 2018).

The test system of test [1] is pulmonary fibrosis mice induced by bleomycin. The experiment in a line: Activity of 8 alkaloids and pentoxyverine against pulmonary fibrosis in mice (Embodiment 3). The test is classed as in vivo, C57BL/6 mice. To be noted: intragastric from first day after model to 21th day; alkaloids and pentoxyverine 30 mg/kg (FIG. 1B, 1C). The procedure:
(§1) Female C57BL/6 mice (eight-week-old) are established for models after 7 days, the time is set for the mice to adapt to the environment. After fasts for overnight, the mice are anaesthetized by 3% chloral hydrate and fixed. Sterilize and incise neck skin longitudinally as little injury as possible. Split fascia and muscle with tweezers longitudinally and expose the windpipe. Then, about 35 μl (3.5 mg/kg) bleomycin are injected into windpipe with microinjector. Put the mice upright rapidly and rotate the mice for 3˜5 minutes, so that bleomycin is able to enter into the pulmones uniformly. Observe the breathing of mice. Sterilize neck injury with 75% alcohol tampon and stitch the wound, then 1 drop or 2 drops of benzylpenicillin injection is/are dripped into the suture. Put the mice back into dry and clean cages, and feed them normally after waking up. Operations are done on operating table at about […]. Physiological saline using in injection is injected into windpipe of sham operation group.
Experimental mice are randomly divided into 12 groups: 10 mice in model group, 10 mice in pentoxyverine group, and 5 mice in any other group. Group 1 is sham operation group, group 2 is model group, group 3 is pentoxyverine group, group 4 is positive drug pirfenidone group, groups 5-12 are compounds I-VIII administration group respectively. Models of groups 2-12 are established by using bleomycin with the same method used in embodiment 2. From the first day after successfully establishing model, 30 mg/kg pentoxyverine and 300 mg/kg pirfenidone are given to group 3 and group 4 by means of intragastric administration respectively. 30 mg/kg compounds I-VIII are given to groups 5-12 also by means of intragastric administration respectively. Besides, same doses of solvent are given to sham operation group and model group until the 21th day. After the last intragastric administration, the mice are killed to collect the lung tissue, and the right lobule is used for determining the content of hydroxyproline, while the left lobule is used for preparing pathological sections.

Test [2] has as its system TGF-β1. As to the kind of experiment: ELISA content determination of TGF-β1 in mice lung tissue (Embodiment 4). The class given is in vivo, C57BL/6 mice. Particulars: for content of TGF-β1 in lung tissue (ELISA): 30 mg/kg and 60 mg/kg, prevention groups and treatment groups, versus model group (FIG. 8), lower dose more effective; for effect on content of TGF-β1, comparison among compounds: ELISA, lung tissue. The procedure: as §1
(§2) Model animals are divided into prevention groups and treatment groups, then drugs are given to the two groups respectively. According to internationally methods of drug administration, drugs are given continuously to the prevention groups by means of intragastric administration from the second day after successfully establishing model to the 14th day, and drugs are given continuously to treatment groups by means of intragastric administration from the 8th day after successfully establishing model to the 21th day. Groups and dosage regimen are shown in tab.1.
TGF-β1 is a universally recognized strong pro-fibrotic cytokine. It can stimulate the cells to synthesize and secrete extracellular matrix as well as exchange the activity of matrix-degrading enzyme component and directly increase the deposition of ECM. The progress of pulmonary fibrosis can be slowed down by decreasing the content of TGF-β1 in lung tissue. Elisa test kit (which is purchased from Shanghai Excell Biological Technology Co., Ltd.) according to specification is used in the determination of TGF-β1 in mice lung tissue. Results can be seen in FIG. 8.

The test system of test [3] is pulmonary fibrosis mice induced by bleomycin. The experiment in a line: Determination of mice mortality (Embodiment 4). The class given is in vivo, C57BL/6 mice. To be noted: for protective effect on model mice (mortality), comparison among compounds: lower dose (30 mg/kg) better. The procedure:
as §1, §2
From the 0th day (the day when the model is established) to 14th day, drugs are given continuously to prevention groups. From the 8th day after successfully establishing model to 21th day, drugs are given continuously to treatment groups. Statistical analysis of death of animals in each group is carried on every day and the survival rate of animals in each group is calculated. Results are shown in tab.2.

The test system of test [4] is cough reflex pathway. Particulars: in vivo; cited from earlier work.
Test [5] relates to cough of guinea pig induced by citric acid. Particulars: cited from earlier work.
Test [6] deals with pulmonary fibrosis mice induced by bleomycin. As to the kind of experiment: HE stained pathological evaluation and inflammation scores (Embodiment 4). The class given is in vivo, C57BL/6 mice. Particulars: for lung tissue inflammation scores (HE stained, grade 0-3): 30, 60 mg/kg, prevention and treatment groups (FIG. 4), lower dose better; for pulmonary inflammation and injury, HE stained pathological changes: prevention groups and treatment groups (FIG. 3), lower dose (30 mg/kg) better than higher dose. The procedure: as §1, §2
After the last intragastric administration, the mice are anaesthetized and killed to collect the lung tissue. Immerse the left lobule in 10% formalin, and embed it by paraffin after being fixed, then cut it into slices to observe the pathological changes by HE staining. As is shown in FIG. 3, structures of lobules of sham operation group are normal and the alveolar walls are complete without inflammation and fibrosis pathological changes. Obvious inflammation injury and masses of tissue begin to appear in lung of mice in model group, then the normal lung tissue disappears and alveolar is blocked. […] The groups with lower dose (30 mg/kg) of the 3 compounds show better effect than the groups with higher dose. The pulmonary inflammation disappears and alveolar structure is clear in groups with lower dose.
Inflammatory classification semi quantitative statistics analysis is made according to results of HE staining. Grade 0 represents normal tissue or minimal inflammation change. Grade 1 (+) represents mild to moderate inflammation change, and lung tissue without obvious damage. Grade 2 (++) represents moderate to severe inflammation injury, and alveolar septum is thickened to form masses of tissue, or lung tissue with damage caused by partial area inflammation. Grade 3 (+++) represents severe inflammation injury, and structure of restricted regions in lung tissue is severely damaged, thus resulting in obliteration. […] The groups with lower dose show better effect than the groups with higher dose. In general, the 3 compounds have better effect in decreasing the pulmonary inflammation than the positive drug pirfenidone.

For test [7] the test system is unchanged. The experiment in a line: Detection of the mice lung index (Embodiment 4). The test is classed as in vivo, C57BL/6 mice. Particulars: 30 and 60 mg/kg, prevention groups and treatment groups, versus model group (FIG. 2); lower dose better in prevention groups. The procedure:
as §1, §2
After the last intragastric administration, the mice are killed to strip and weigh the lung, and the lung index is the lung weight divided by mouse weight (FIG. 2). […] In general, the 3 compounds have better effect in decreasing the mortality of mice than the positive drug pirfenidone.

For test [8] the test system is unchanged. The experiment in a line: Content determination of hydroxyproline in lung tissue (Embodiment 4). The class given is in vivo, C57BL/6 mice. Particulars: 30 mg/kg and 60 mg/kg, prevention groups and treatment groups (FIG. 7); lower dose slightly better. The procedure:
as §1, §2
Hydroxyproline mainly exists in collagen protein, but there is only a very small amounts in elastin proteins and it cannot found in other proteins. Therefore the content of collagen protein can be indicated by measuring the content of hydroxyproline, so as to evaluate the degree of pulmonary fibrosis. Method of test kit (which is purchased from Nanjing Jiancheng Biological Technology Co., Ltd.) according to specification is used in determination of hydroxyproline. Results can be seen in FIG. 7.

The test system is the same in test [9]. The experiment in a line: Masson stained pathological evaluation and imaging analysis of collagen (Embodiment 4). The class given is in vivo, C57BL/6 mice. Particulars: for collagen deposition (Masson staining, integrated optical density): 30, 60 mg/kg, prevention and treatment groups (FIG. 5, 6), lower dose better in prevention, higher dose better in treatment; for effect in decreasing the collagen deposition, comparison among compounds: in general, Masson staining. The procedure:
as §1, §2
Masson staining is a method aiming at specific staining of fibrillar collagen. After the last intragastric administration, the mice are anaesthetized and killed to collect the lung tissue. Immerse the left lobule in 10% formalin, and embed it by paraffin after being fixed, then is cut it into slices to observe the collagen deposition by Masson staining. Semi quantitative analysis is made by using Image-Pro Plus6.0. Integrated optical density (IOD) of collagen in each visual field is measured after Masson staining. 5 samples are studied in each group and 5 visual fields are picked out from each group. Statistics analysis is made by calculating mean value which is considered as relative amount of collagen in each group.

The mark [10] stands for this setting: prevention groups, 30 mg/kg intragastric to the 14th day.
Where [11] appears, read: prevention groups, 30 mg/kg intragastric to the 14th day, 10 animals.
Setting [12] is: prevention groups, 60 mg/kg intragastric to the 14th day.
Setting [13] is: prevention groups, 60 mg/kg intragastric to the 14th day, 10 animals.
[14] abbreviates: treatment groups, 30 mg/kg intragastric from the 8th to the 21th day.
The mark [15] stands for this setting: treatment groups, 30 mg/kg intragastric from the 8th to the 21th day, 18 animals.
Setting [16] is: treatment groups, 60 mg/kg intragastric from the 8th to the 21th day.
Setting [17] is: treatment groups, 60 mg/kg intragastric from the 8th to the 21th day, 18 animals.

For `CC[C@@H]1[C@H]2CCCCN3[C@H]2[C@@H](C[C@H]3[C@@H]2C[C@H](C)C(=O)O2)[C@H]2[C@@H]1OC(=O)[C@H]2C` [Compound VII, Neotuberostemonine], in test [1], the “pulmonary inflammation, injury and fibrosis in HE and Masson stained pathological sections” value was “recover to nearly normal structure”. For the same compound, in test [2], the “content of TGF-β1 in lung tissue (ELISA)” value is reported as “effectively decrease the content of TGF-β1”. The Survival rate was determined as 100% in [3] (setting [10]), 80% in [3] (setting [12]), 89% in test [3] (setting [14]) and 78% in test [3] (setting [16]). Moreover, the “Mortality (number of dead animals)” value in [3] (setting [11]) is 0; in [3] (setting [13]), 2; in test [3] (setting [15]) it was 2; in test [3] (setting [17]), 4. In addition, the “protective effect on model mice (mortality), comparison among compounds” value in [3] (prevention groups) is “more effective than compound VIII”. Also, in test [4], the “antitussive activities, comparison among stemona tuberosa alkaloids” value is reported as “similar”. Further, the antitussive effect result in test [5] is listed as “very good antitussive effect”. Also, the “lung tissue inflammation scores (HE stained, grade 0-3)” value (from here on “lung tissue inflammation scores”) in test [6] is “significantly decrease the pulmonary inflammation”. Besides, the “pulmonary inflammation and injury, HE stained pathological changes” value in test [6] is listed as “significantly alleviate the pulmonary inflammation”. In test [7], the “lung index (lung weight divided by mouse weight)” value is recorded as “significantly decrease the lung index”. In addition, in [8], the “content of hydroxyproline in lung tissue” value was “effectively decrease the content of hydroxyproline”. The “collagen deposition (Masson staining, integrated optical density)” value in test [9] is on record as “significantly decrease collagen deposition”. Further, the “effect in decreasing the collagen deposition, comparison among compounds” value in test [9] is “slightly better than that of compound VIII”.

Turning to `CC[C@@H]1[C@H]2CCCCN3CC[C@H]([C@@H]4[C@H]1OC(=O)[C@@H]4C)[C@@H]23` [Compound VIII, Sessilifoline B], the “pulmonary inflammation, injury and fibrosis in HE and Masson stained pathological sections” value in [1] is “recover to nearly normal structure”. Besides, the “content of TGF-β1 in lung tissue (ELISA)” value in test [2] is listed as “effectively decrease the content of TGF-β1”. The “effect on content of TGF-β1, comparison among compounds” value in test [2] is reported as “slightly better than that of compound VII”. In addition, the Survival rate came to 90% in test [3] (setting [10]), 80% in [3] (setting [12]), 83% in [3] (setting [14]) and 78% in test [3] (setting [16]). Also, the “Mortality (number of dead animals)” value in [3] (setting [11]) is given as 1; in test [3] (setting [13]) it was 2; in test [3] (setting [15]), 3; in [3] (setting [17]), 4. Also, in test [6], the “lung tissue inflammation scores” value is “significantly decrease the pulmonary inflammation”. In addition, the “pulmonary inflammation and injury, HE stained pathological changes” value in test [6] is given as “significantly alleviate the pulmonary inflammation”. In [7], the “lung index (lung weight divided by mouse weight)” value is given as “significantly decrease the lung index”. Further, the “content of hydroxyproline in lung tissue” value in test [8] was “effectively decrease the content of hydroxyproline”. Besides, in [9], the “collagen deposition (Masson staining, integrated optical density)” value was “significantly decrease collagen deposition”.

`CC[C@@H]1[C@H]2CCCCN3[C@H]2[C@H](C[C@H]3[C@@H]2C[C@H](C)C(=O)O2)[C@@H]2[C@H]1OC(=O)[C@H]2C` [Compound I, Tuberostemonine]: the “pulmonary inflammation, injury and fibrosis in HE and Masson stained pathological sections” value in [1] was “recover to nearly normal structure”. Besides, in [2], the “content of TGF-β1 in lung tissue (ELISA)” value is “effectively decrease the content of TGF-β1”. Also, in [2], the “effect on content of TGF-β1, comparison among compounds” value is reported as “slightly better than that of compound VII”. Further, the Survival rate in test [3] (setting [10]) worked out at 100%; in test [3] (setting [12]), 90%; in [3] (setting [14]), 89%; in [3] (setting [16]), 83%. The “Mortality (number of dead animals)” value in [3] (setting [11]) is recorded as 0; in test [3] (setting [13]) it was 1; in [3] (setting [15]), 2; in [3] (setting [17]) it was 3. Also, the “protective effect on model mice (mortality), comparison among compounds” value in test [3] (prevention groups) is “more effective than compound VIII”. Further, the “antitussive activities, comparison among stemona tuberosa alkaloids” value in [4] was “weaker”. Further, the “lung tissue inflammation scores” value in test [6] was “significantly decrease the pulmonary inflammation”. Also, the “pulmonary inflammation and injury, HE stained pathological changes” value in [6] is “significantly alleviate the pulmonary inflammation”. Also, the “lung index (lung weight divided by mouse weight)” value in [7] was “significantly decrease the lung index”. Moreover, in test [8], the “content of hydroxyproline in lung tissue” value is recorded as “effectively decrease the content of hydroxyproline”. The “collagen deposition (Masson staining, integrated optical density)” value in test [9] was “significantly decrease collagen deposition”. In [9], the “effect in decreasing the collagen deposition, comparison among compounds” value is “slightly better than that of compound VIII”.
